Consider four compounds from publication PMC6222509, “Dibasic Derivatives of Phenylcarbamic Acid against Mycobacterial Strains: Old Drugs and New Tricks?” (Molecules : A Journal of Synthetic Chemistry and Natural …, 2018).

Series [1] can be described thus: electronic properties, UV/Vis spectrophotometry of methanolic solutions. The class given is physicochemical. The settings on record: methanolic solution c = 8.0 × 10^−5 M; for log ε2 (Ch-T): charge-transfer maximum λ2 (Ch-T) = 236–238 nm; for log ε1: λ1 = 208–210 nm; for log ε3: λ3 = 278–280 nm. The text has this: Electronic properties of the molecules 1a–p (Table 1) were characterized by logarithms of molar absorption coefficients (log ε) of their methanolic solutions (c = 8.0 × 10^−5 M) investigated in the UV/Vis region of an electromagnetic spectrum.
Positions of these absorption bands in the spectrum were typical for derivatives of (substituted) phenylcarbamic acid and the bands were assigned as first local excitation (λ3), charge-transfer (λ2 (Ch-T)) and second local excitation (λ1) absorption maxima, respectively. The λ1 and λ2 (Ch-T) maxima of 2-alkoxy substituted compounds 1a–d and 1i–l were slightly lower compared to those of their 3-alkoxy substituted positional isomers 1e–h and 1m–p (Table 1), respectively.
The UV/Vis spectra of methanolic solutions of analyzed compounds 1a–p (c = 8.0 × 10^−5 M) were observed on the 8452A Diode Array spectrophotometer HP-8452A (Hewlett-Packard, Palo Alto, CA, USA) at 21 °C. Methanol for UV-spectroscopy (Merck, Darmstadt, Germany) was used for preparation of these solutions. Results of the UV/Vis analyses were collected and stored digitally using the ChemStation controller software (Agilent Technologies, Waldbronn, Germany). The HP-8452A apparatus measured a complete range of compounds’ spectrum from 190 nm to 820 nm.
The log ε values for presently observed absorption maxima were calculated following the Lambert-Beer’s law, which was discussed in [35], for example, and expressed by Equation (16):A = ε × c × l(16) where the A parameter represented absorbance of a compound’s solution, the ε descriptor was a molar absorption coefficient (in L/mol/cm units) and l was path length (in cm units).

The nature of series [2]: lipophilicity by isocratic RP-HPLC (log k, k, log kw, S). The settings on record: for log kw: extrapolated to 100% water from log k versus ϕM; for S (slope): slope of log k versus ϕM regression. The class given is physicochemical. The text has this: Octadecyl-functionalized silica gel was currently used as a stationary phase (SPh) and a […] of two solvents at different volume ratios modified retention properties of the SPh. Liquid binary mixtures of methanol (MeOH) with water were employed as mobile phases (MPhs) in the isocratic RP-HPLC. The MeOH modifier was preferred because of similarity of both observed and extrapolated lipophilicity parameters with the ones determined in the octan-1-ol/water partition system, considering also sensitivity to H-bond donor properties of investigated compounds [41].
The modifier was applied in different volume concentrations, which varied from […] (v/v) with 5% increments. This interval was chosen due to very high lipophilicity of investigated salts. Practically, lower volume concentration of MeOH, i.e., less than 85% (v/v) in used MPhs, caused uncertainty of retention times (tr) due to notable peaks broadening, especially within subsets 1i–l and 1m–p. […] The highest tr parameters were found for the molecules 1k (tr = 47.108 min) and 1l (tr = 70.012 min) in the MPh containing 85% proportion (v/v) of MeOH (Table 2).
According to the authors’ opinions based on systematic scientific literature survey, a current research paper was the first, which aimed the log kw parameters of 2-/3-alkoxyphenylcarbamic acid derivatives containing two centers of protonation. The log kw values were extrapolated from intercepts of a relationship between log k and volume fraction of the MPh modifier (ϕM) using the Snyder–Soczewiński linear solvent strength model. The relationship was justified by R > 0.9900, Adj. R^2 > 0.9750 as well as F > 180.00 for calculation of particular log kw parameters (Table 3).
The HPLC separation module Waters e2695 equipped with a Waters 2996 PDA Detector (Waters Corp., Milford, MA, USA) and chromatographic column Symmetry C18 × 5 μm, 4.6 × 250 mm, Part No. W21751W016 (Waters Corp.) were used for estimation of lipophilic properties of the compounds 1a–p at 21 °C.
Isocratic elution was carried out using mobile phases consisting of methanol p.a. (MeOH; Honeywell, Paris, France) and purified water in various volume ratios (80:20, 85:15, 90:10, 95:5 (v/v) and pure MeOH, respectively). Distilled water (CentralChem, Bratislava, Slovak Republic) was purified by the Aquinity2 P10 ultra-pure water system for production of ultra-pure water with an integrated 10 L permeate tank (membraPure, Hennigsdorf, Germany).
Total flow of the column was 1.0 mL/min, injection volume was 4 μL and column temperature was set to 40 °C. The detection wavelengths varying from 236 nm to 238 nm were chosen for current experimental procedures.
Lipophilicity of the compounds 1a–p was determined by reversed-phase high-performance liquid chromatography (RP-HPLC). Methanol (MeOH)/water mobile phases with varying volume ratio of the organic modifier and water (80:20, 85:15, 90:10, 95:5 (v/v) and pure MeOH, respectively) were chosen.
A methanolic solution of potassium iodine was used for dead time (td) determination. Retention factors (capacity factors; k) were calculated according to Equation (17):k = (tr− td)/td(17) where tr was retention time of a solute (in min), the td parameter denoted dead time of potassium iodine, an unretained analyte (in min).
The observed retention (tr) and dead (td) times were means of three independent determinations. Average td values of potassium iodine in used MPhs were as follows: 2.237 min (MeOH/water ratio (v/v) was 80:20), 2.245 min (85:15), 2.245 min (90:10), 2.228 min (95:5) and 2.210 min (pure MeOH), respectively. […]

The subject of series [3] is M. kansasii DSM 44162 (MK DSM). Nature of the series: in vitro antimycobacterial MIC, broth dilution micromethod in Middlebrook 7H9. Type of series: cell-based. The settings on record: Mycobacterium kansasii, DSM 44162 / DSM 7, 168 h. In general terms: Broth dilution looks for growth in wells or tubes with falling amounts of substance.
In series [4] the test system is M. marinum CAMP 5644 (MM). Described as above. The settings on record: Mycobacterium marinum, 504 h. The class given is cell-based, Mycobacterium marinum.
Where [5] appears, read: mobile phase MeOH/water 80:20 (v/v).
The mark [6] stands for this setting: mobile phase MeOH/water 85:15 (v/v).
The mark [7] stands for this setting: mobile phase MeOH/water 90:10 (v/v).
The mark [8] stands for this setting: mobile phase MeOH/water 95:5 (v/v).
Where [9] appears, read: 7-day cultivation, 37 °C, read-out: MIC MK DSM 7-d.
Setting [10] is: read-out: MIC MM 21-d, 21-day cultivation, 28 °C.
The mark [11] stands for this setting: 21-day cultivation, 28 °C, read-out: MIC MM 21-d.

Values after ≈ are worked out from the molar mass of the structure shown. Like-named read-outs stand apart in the source and are kept apart here.

As usually defined, the MIC is the lowest concentration that inhibits growth of the organism. Turning to `CCCCOc1cccc(NC(=O)OC(CN(CCC)CCC)CN2CCCCCC2)c1` (centres unmarked) [1m], the “log ε2 (Ch-T)” value in series [1] was 4.09. Further, in series [1], the “log ε1” value was determined as 4.52. The “log ε3” value in series [1] amounted to 3.44. Also, the log kw in series [2] is 4.7099. The “k (retention factor)” value in series [2] (setting [5]) came to 6.0325; in series [2] (setting [6]), 3.1060; in series [2] (setting [7]), 1.8599; in series [2] (setting [8]), 1.1026; in series [2] (mobile phase pure MeOH), 0.5922. The log k is given as 0.7805 in series [2] (setting [5]); 0.4922 in series [2] (setting [6]); 0.2695 in series [2] (setting [7]); 0.0424 in series [2] (setting [8]); −0.2275 in series [2] (mobile phase pure MeOH). The “S (slope)” value in series [2] is 4.9316. Also, the MIC in series [3] (setting [9]) came out at 7.7 µM (≈ 3.45 µg/mL); in series [4] (setting [10]), 15.4 µM (≈ 6.89 µg/mL).
Regarding `CCCCCCOc1cccc(NC(=O)OC(CN(CCC)CCC)CN2CCCC2)c1` (centres unmarked) [1g], the “log ε2 (Ch-T)” value in series [1] is 4.13. Besides, the “log ε1” value in series [1] amounted to 4.54. Further, the “log ε3” value in series [1] was 3.48. Besides, the log kw in series [2] is 4.9446. The “k (retention factor)” value is 6.6896 in series [2] (setting [5]); 4.0776 in series [2] (setting [6]); 2.3329 in series [2] (setting [7]); 1.3128 in series [2] (setting [8]); 0.6213 in series [2] (mobile phase pure MeOH). For the same compound, the log k is recorded as 0.8254 in series [2] (setting [5]); 0.6104 in series [2] (setting [6]); 0.3679 in series [2] (setting [7]); 0.1182 in series [2] (setting [8]); −0.2067 in series [2] (mobile phase pure MeOH). The “S (slope)” value in series [2] was found to be 5.1128. Moreover, the MIC in series [3] (setting [9]) is 3.8 µM (≈ 1.7 µg/mL); in series [4] (setting [11]) it was less than 3.8 µM.
For `CCCCCOc1cccc(NC(=O)OC(CN(CCC)CCC)CN2CCCCCC2)c1.Cl.Cl` (centres unmarked) [1n, 1-[2-[({[3-(pentyloxy)phenyl]amino}carbonyl)oxy]-3-(di-propylammonio)propyl]azepanium dichloride], the “log ε2 (Ch-T)” value in series [1] is listed as 4.18. In addition, in series [1], the “log ε1” value came to 4.56. Moreover, the “log ε3” value in series [1] amounted to 3.52. For the same compound, the log kw in series [2] is recorded as 5.2087. Further, the “k (retention factor)” value is listed as 8.9166 in series [2] (setting [5]); 4.5102 in series [2] (setting [6]); 2.6333 in series [2] (setting [7]); 1.2419 in series [2] (setting [8]); 0.7858 in series [2] (mobile phase pure MeOH). Further, the log k in series [2] (setting [5]) is given as 0.9502; in series [2] (setting [6]) it was 0.6542; in series [2] (setting [7]), 0.4205; in series [2] (setting [8]), 0.0941; in series [2] (mobile phase pure MeOH), −0.1047. For the same compound, the “S (slope)” value in series [2] is given as 5.3398. The MIC in series [3] (read-out: MIC MK DSM 7-d, 7-day cultivation, 37 °C) stood at 7.5 µM; in series [4] (setting [10]) it was 15 µM.
In the case of `CCCCCCCOc1cccc(NC(=O)OC(CN(CCC)CCC)CN2CCCCCC2)c1.O=C(O)C(=O)O` (centres unmarked) [1l, 1-[2-[({[3-(hept-yloxy)phenyl]amino}carbonyl)oxy]-3-(dipropylammonio)propyl]azepanium oxalate], the “log ε2 (Ch-T)” value in series [1] is 4.14. Further, the “log ε1” value in series [1] stood at 4.44. For the same compound, the “log ε3” value in series [1] was found to be 3.59. Also, the log kw in series [2] was 5.8966. Besides, the “k (retention factor)” value in series [2] (setting [5]) stood at 30.4159; in series [2] (setting [6]), 16.4135; in series [2] (setting [7]), 9.1601; in series [2] (setting [8]) it was 4.2374; in series [2] (mobile phase pure MeOH), 2.5096. For the same compound, the log k in series [2] (setting [5]) was 1.4831; in series [2] (setting [6]), 1.2152; in series [2] (setting [7]), 0.9619; in series [2] (setting [8]), 0.6271; in series [2] (mobile phase pure MeOH), 0.3996. For the same compound, the “S (slope)” value in series [2] was 5.5102. Besides, the MIC in series [3] (setting [9]) stood at 382 µM; in series [4] (setting [11]) it was 191 µM.
